Results as given in paper PMC10298284, “Synthesis and hLDH Inhibitory Activity of Analogues to Natural Products with 2,8-Dioxabicyclo[3.3.1]nonane Scaffold” (International Journal of Molecular Sciences, 2023).
Several values for one entry are separate records, joined by “and”; a condition that tells them apart may be missing. Identical values can stand only once. Like-named read-outs stand apart in the source and are kept apart here.

Columns and labels:
[1] = molecular target: T1, recombinant human LDHB (Homo sapiens, UniProt P07195); assay: hLDHB enzymatic activity assay (same fluorimetric protocol); assay type: biochemical; conditions: mean ± SD of n = 3 replicates
T1 construct: purchased Abcam
T1 sequence (P07195 whole entry): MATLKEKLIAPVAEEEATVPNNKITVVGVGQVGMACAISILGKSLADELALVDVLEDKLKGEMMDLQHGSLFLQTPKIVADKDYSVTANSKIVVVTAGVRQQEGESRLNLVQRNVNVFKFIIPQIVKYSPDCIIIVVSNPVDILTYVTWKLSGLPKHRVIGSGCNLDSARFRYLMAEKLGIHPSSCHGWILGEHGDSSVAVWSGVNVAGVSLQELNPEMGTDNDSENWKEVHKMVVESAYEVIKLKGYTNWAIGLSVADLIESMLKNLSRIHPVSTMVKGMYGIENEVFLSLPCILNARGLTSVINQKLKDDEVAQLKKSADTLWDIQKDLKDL
Method: (§1) Briefly, the decrease in the coenzyme β-NADH fluorescence (λemission = 460 nm) was measured for 10 min, at different concentration of inhibitors, and its slope was compared with the one obtained when there were not inhibitors added (100% enzymatic activity).
The ability of the synthesized compounds to inhibit the hLDHB enzyme was measured using recombinant human LDHB (95%, specific activity >300 units/mg and concentration of 1.0 mg/mL, Abcam, Cambridge, UK) following the same fluorimetric protocol described in Section 3.4.

[2] = molecular target: T2, recombinant human LDHA (Homo sapiens, UniProt P00338); set-up: method as in PMID 36113265; conditions: compounds evaluated previously, cited from earlier work; for IC50: included for comparative purposes, read-out: hLDHA IC50; for Selectivity Rate (IC50 hLDHB/hLDHA): ratio IC50 hLDHB / IC50 hLDHA
T2 construct: purchased Abcam

[3] = molecular target: T1, recombinant human LDHB; set-up: method as in PMID 36113265; conditions: compounds evaluated previously, included for comparative purposes; read-out: hLDHB IC50; cited from earlier work
[4] = molecular target: T2, recombinant human LDHA; assay: hLDHA enzymatic activity assay (kinetic spectrofluorimetric, β-NADH fluorescence decrease); assay type: biochemical; conditions: for IC50: mean ± SD of n = 3 replicates; for Selectivity Rate (IC50 hLDHB/hLDHA): ratio IC50 hLDHB / IC50 hLDHA
Method: as §1
The enzymatic assay was conducted on 96-well microplates and the decrease in the β-NADH fluorescence (λexcitation = 340 nm; λemission = 460 nm) was detected in a TECAN Infinite 200 Pro M Plex fluorescent plate reader (Tecan Instrument, Inc.) at 28 °C. The activity was determined according to our previously described protocol. The final volume in each well was set to 200 µL using 100 mM potassium phosphate buffer, 0.041 units/mL LDHA, 155 µM β-NADH, 1 mM pyruvate (saturated conditions), and DMSO solutions (5%, v/v) of pure compounds at concentrations in the range of 1–600 µM. The addition of pyruvate allowed the beginning of the reaction and fluorescence was registered every 60 s during 10 min. A lineal time interval was selected to calculate the slope at every single concentration. […] The slope obtained at each concentration was compared to the one obtained for the 100% enzymatic activity control to determine the corresponding enzymatic activity. A nonlinear regression analysis in GraphPad Prism version 9.00 for Windows (GraphPad Software, La Jolla, CA, USA) was used for dose response curve, fitting of logarithm of inhibitor concentration vs. normalized enzymatic activity, to calculate IC50 values (Supplementary Material section). All measurements were made in triplicate and data were expressed as the mean ± SD.

[5] = supplementary dose response curves, µM only on the axis label, read-out: IC50 (hLDHB inhibition curve)
[6] = 1 mM pyruvate, 155 µM β-NADH, pH 7.3, 28 °C, read-out: hLDHA IC50
[7] = supplementary dose response curves, µM only on the axis label, read-out: IC50 (hLDHA inhibition curve)

Compound | IC50 [1, 5] | IC50 ([1]; read-out: hLDHB IC50) | melting point | IC50 [4, 6] | Selectivity Rate (IC50 hLDHB/hLDHA) [4] | IC50 [4, 7] | Selectivity Rate (IC50 hLDHB/hLDHA) ([4]; listed as 65a) | Selectivity Rate (IC50 hLDHB/hLDHA) ([4]; listed as 67a) | IC50 [2] | Selectivity Rate (IC50 hLDHB/hLDHA) [2] | IC50 [3] | Selectivity Rate (IC50 hLDHB/hLDHA) ([4]; listed as 50)
Oc1cc(O)c2c(c1)OC1(c3ccc(O)c(O)c3)CC2c2ccccc2O1 (racemic) [(±)-1] | 35.4 ± 0.8 µM |  |  |  |  |  |  |  | 73.1 ± 2.5 µM | 0.5 |  | 
O=[N+]([O-])c1ccc2c(c1)C1CC(c3ccc(O)c(O)c3)(O2)Oc2cc(O)cc(O)c21 (racemic) [(±)-2] |  |  |  |  |  |  |  |  | 9.7 ± 1.1 µM | 3.0 | 28.6 ± 1.9 µM | 
Oc1cc(O)c2c(c1)OC1(c3ccc(O)c(O)c3)CC2c2cc(Cl)ccc2O1 (racemic) [(±)-3] |  |  |  |  |  |  |  |  | 15.7 ± 2.7 µM | 2.5 | 39.7 ± 2.8 µM | 
Oc1ccc(C23CC(c4ccccc4O2)c2c(O)cc(O)cc2O3)cc1 (racemic) [(±)-4] | 45.9 ± 1.5 µM |  |  |  |  |  |  |  | 60 ± 4.7 µM | 0.8 |  | 
O=[N+]([O-])c1ccc2c(c1)C1CC(c3ccc(O)cc3)(O2)Oc2cc(O)cc(O)c21 (racemic) [(±)-5] |  |  |  |  |  |  |  |  | 24.4 ± 2.7 µM | 2.9 | 69.7 ± 4.7 µM | 
Oc1ccc(C23CC(c4cc(Cl)ccc4O2)c2c(O)cc(O)cc2O3)cc1 (racemic) [(±)-6] |  |  |  |  |  |  |  |  | 26.7 ± 0.8 µM | 3.2 | 85.5 ± 2.5 µM | 
O=c1oc2ccccc2c2c1C1CC(c3ccc(O)c(O)c3)(Oc3ccc(Cl)cc31)O2 (racemic) [(±)-47, 2-(3′,4′-Dihydroxyphenyl)-6-chlorochromane-(4→3″, 2→O-4″)-4″-hydroxycoumarin] |  | 14.3 ± 0.9 µM | 98 to 100 °C (dec.) | < 10 µM and 9.1 µM | 1.6 | 9.1 ± 0.5 µM |  |  |  |  |  | 
COc1ccc(C23CC(c4cc([N+](=O)[O-])ccc4O2)c2c(c4ccccc4oc2=O)O3)cc1OC (racemic) [(±)-49, 2-(3′,4′-Dimethoxyphenyl)-6-nitrochromane-(4→3″, 2→O-4″)-4″-hydroxycoumarin] |  | 212.3 ± 1.4 µM | 142 to 144 °C | 25.7 ± 0.3 µM | 8.3 | 25.7 ± 0.3 µM |  |  |  |  |  | 
COc1ccc(C23CC(c4cc(Cl)ccc4O2)c2c(c4ccccc4oc2=O)O3)cc1OC (racemic) [(±)-50, 2-(3′,4′-Dimethoxyphenyl)-6-chlorochromane-(4→3″, 2→O-4″)-4″-hydroxycoumarin] |  | > 300 µM | 130 to 133 °C | 13.2 ± 0.8 µM | >22.7 | 13.2 ± 0.8 µM |  |  |  |  |  | > 10
O=C1C2=C(C(=O)c3ccccc31)C1CC(c3ccc(O)c(O)c3)(O2)Oc2ccc(Cl)cc21 (racemic) [(±)-56, 2-(3′,4′-Dihydroxyphenyl)-6-chlorochromane-(4→3″, 2→O-2″)-2″-hydroxy-1″,4″-naphthoquinone] |  | 119 ± 2.7 µM | 300 to 302 °C (dec.) | 13.7 ± 0.6 µM | 8.7 | 13.7 ± 0.6 µM |  |  |  |  |  | 
COc1ccc(C2CC3=C(C(=O)O2)C2CC(c4ccc(OC)c(OC)c4)(O3)Oc3ccccc32)cc1 (racemic) [(±)-64a, 2-(3′,4′-Dimethoxyphenyl)-chromane-(4→3″, 2→O-4″)-4″-hydroxy-6″-(4‴-methoxyphenyl)-5″,6″-dihydro-2H-pyran-2″-one] |  | > 300 µM | 172 to 175 °C | 52.8 ± 5.3 µM | >5.7 | 52.8 ± 5.3 µM |  |  |  |  |  | 

More lines, main results first:

IC50 [1, 5] | IC50 ([1]; read-out: hLDHB IC50) | melting point | IC50 [4, 6] | Selectivity Rate (IC50 hLDHB/hLDHA) [4] | IC50 [4, 7] | Selectivity Rate (IC50 hLDHB/hLDHA) ([4]; listed as 65a) | Selectivity Rate (IC50 hLDHB/hLDHA) ([4]; listed as 67a) | Compound | IC50 [2] | Selectivity Rate (IC50 hLDHB/hLDHA) [2] | IC50 [3] | Selectivity Rate (IC50 hLDHB/hLDHA) ([4]; listed as 50)
 | 269 ± 11 µM | 198 to 200 °C | 12.5 ± 1.1 µM | 21.5 | 12.5 ± 1.1 µM | > 10 |  | COc1ccc(C23CC(C4=C(CC(c5ccccc5)OC4=O)O2)c2cc([N+](=O)[O-])ccc2O3)cc1OC (racemic) [(±)-65a, 2-(3′,4′-Dimethoxyphenyl)-6-nitrochromane-(4→3″, 2→O-4″)-4″-hydroxy-6″-phenyl-5″,6″-dihydro-2H-pyran-2″-one] |  |  |  | 
 | 28.1 ± 0.4 µM | 194 to 196 °C | < 10 µM and 5.8 µM | 4.8 | 5.8 µM |  |  | COc1ccc(C23CC(C4=C(CC(c5ccc(Cl)cc5)OC4=O)O2)c2cc([N+](=O)[O-])ccc2O3)cc1OC (racemic) [(±)-66a, 2-(3′,4′-Dimethoxyphenyl)-6-nitrochromane-(4→3″, 2→O-4″)-6″-(4‴-chlorophenyl)-4″-hydroxy-5″,6″-dihydro-2H-pyran-2″-one] |  |  |  | 
 | > 300 µM | 162 to 164 °C | 14.8 ± 0.6 µM | >20.3 | 14.8 ± 0.6 µM |  | > 10 | COc1ccc(C2CC3=C(C(=O)O2)C2CC(c4ccc(OC)c(OC)c4)(O3)Oc3ccc([N+](=O)[O-])cc32)cc1 (racemic) [(±)-67a, 2-(3′,4′-Dimethoxyphenyl)-6-nitrochromane-(4→3″, 2→O-4″)-4″-hydroxy-6″-(4‴-methoxyphenyl)-5″,6″-dihydro-2H-pyran-2″-one] |  |  |  | 
 | 141 ± 2.5 µM | 172 to 175 °C | 20 ± 0.6 µM | 7.1 | 20 ± 0.6 µM |  |  | COc1ccc(C23CC(C4=C(CC(c5ccc(Cl)cc5)OC4=O)O2)c2cc(Cl)ccc2O3)cc1OC (racemic) [(±)-69a, 2-(3′,4′-Dimethoxyphenyl)-6-chlorochromane-(4→3″, 2→O-4″)-6″-(4‴-chlorophenyl)-4″-hydroxy-5″,6″-dihydro-2H-pyran-2″-one] |  |  |  | 
 | > 300 µM | 108 to 111 °C | 112 ± 3 µM | >2.7 | 112 ± 3 µM |  |  | COc1ccc(C2CC3=C(C(=O)O2)C2CC(c4ccc(OC)c(OC)c4)(O3)Oc3ccc(Cl)cc32)cc1 (racemic) [(±)-70a, 2-(3′.4′-Dimethoxyphenyl)-6-chlorochromane-(4→3″, 2→O-4″)-4″-hydroxy-6″-(4‴-methoxyphenyl)-5″,6″-dihydro-2H-pyran-2″-one] |  |  |  | 
